# Laboratory results reported in patent publication US8354403B2, “Pyrrolidine derived beta 3 adrenergic receptor agonists” (Merck Sharp & Dohme Corp., priority 2009, dated 2013).
# Target: T1, human β3 adrenergic receptor (Homo sapiens, UniProt P13945)
# T1 construct: expressed in transfected cells; host or cells: Chinese hamster ovary (CHO) cells, stably transfected
# Test: Beta-3 agonist in vitro functional assay: cAMP production (LANCE TR-FRET) in CHO cells stably transfected with the cloned β3 receptor
# Assay type: cell-based
# Conditions: Table 4; cAMP, CHO cells; read-out: Human β3 agonist functional activity
# Method in brief: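 CHO cells stably expressing the cloned receptor, in HEPES-buffered HBSS with BSA and 0.6 mM IBMX, 6,000 cells/well, exposed to compound for 30 min at RT. cAMP read by LANCE TR-FRET against a cAMP standard curve. Isoproterenol defines maximal stimulation.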
# T1 sequence (P13945 whole entry): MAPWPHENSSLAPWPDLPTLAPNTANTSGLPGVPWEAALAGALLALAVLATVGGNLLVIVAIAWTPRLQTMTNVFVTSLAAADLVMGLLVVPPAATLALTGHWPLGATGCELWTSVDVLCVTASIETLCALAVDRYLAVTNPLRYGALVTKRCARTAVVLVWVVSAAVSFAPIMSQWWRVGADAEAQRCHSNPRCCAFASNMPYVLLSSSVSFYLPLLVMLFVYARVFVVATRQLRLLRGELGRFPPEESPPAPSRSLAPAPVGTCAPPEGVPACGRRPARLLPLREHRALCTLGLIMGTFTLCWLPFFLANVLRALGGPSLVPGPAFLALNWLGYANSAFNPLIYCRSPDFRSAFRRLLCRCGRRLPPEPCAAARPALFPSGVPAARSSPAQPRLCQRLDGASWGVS
row,EC50 [nM],SMILES
1,100 to 999,O=C(c1ccc(C[C@@H]2CC[C@H]([C@H](O)c3ccccc3)N2)cc1)N1CCc2oncc2C1 [Example 55]
2,100 to 999,CO[C@H]1CCN(C(=O)c2ccc(C[C@@H]3CC[C@H]([C@H](O)c4ccccc4)N3)cc2)C1 [Example 8]

# Second part, the compound before the results:
row,SMILES,EC50 [nM]
1,O=C(OCc1ccccc1)N1CC2(C1)CN(C(=O)c1ccc(C[C@@H]3CC[C@H]([C@H](O)c4ccccc4)N3)cc1)C2 [Example 5],100 to 999
2,Cn1ccnc1C1CCCCN1C(=O)c1ccc(C[C@@H]2CC[C@H]([C@H](O)c3ccccc3)N2)cc1 (some centres unmarked) [Example 51],100 to 999
3,O=C(c1ccc(C[C@@H]2CC[C@H]([C@H](O)c3ccccc3)N2)cc1)N1Cc2cocc2C1 [Example 26],10 to 99.9

# Same assay, conditions: Table 5; cAMP, CHO cells; read-out: Human β3 agonist functional activity
row,EC50 [nM],SMILES
1,100 to 999,Cc1nnn(C2CCN(C(=O)c3ccc(C[C@@H]4CC[C@H]([C@H](O)c5ccccc5)N4)cc3)CC2)n1 [Example 104]
2,10 to 99.9,O=C(c1ccc(C[C@@H]2CC[C@H]([C@H](O)c3ccccc3)N2)cc1)N1CCC(Cc2ccccc2F)CC1 [Example 144]
3,10 to 99.9,Cc1cn(C2CCN(C(=O)c3ccc(C[C@@H]4CC[C@H]([C@H](O)c5ccccc5)N4)cc3)CC2)nn1 [Example 95]

# Continued, compound first:
row,SMILES,EC50 [nM]
1,O=C(c1ccc(C[C@@H]2CC[C@H]([C@H](O)c3ccccc3)N2)cc1)N1CCC(OCc2ccccn2)CC1 [Example 163],100 to 999
2,CNC(=O)c1ccccc1OC1CCN(C(=O)c2ccc(C[C@@H]3CC[C@H]([C@H](O)c4ccccc4)N3)cc2)CC1 [Example 157],100 to 999
3,O=C(c1ccc(C[C@@H]2CC[C@H]([C@H](O)c3cccnc3)N2)cc1)N1CCC(S(=O)(=O)c2cccc(F)c2)CC1 [Example 131],100 to 999

# Same assay, conditions: Table 7; cAMP, CHO cells; ranges as given for Tables 6 and 7; read-out: Human β3 agonist functional activity
row,EC50 [nM],SMILES
1,100 to 999,O=C(O)C1C2CN(C(=O)c3ccc(CC4CCC(C(O)c5ccccc5)N4)cc3)CC21 (centres unmarked) [Example 231]

# Same assay, conditions: Table 8; Beta-3 agonist in vitro functional assay; read-out: Human β3 agonist functional activity
row,EC50 [nM],SMILES
1,10 to 99.9,O=C(c1ccc(C[C@@H]2CC[C@H]([C@H](O)c3ccccc3)N2)cc1)N1CCC2(CCNC2=O)CC1 [Example 250]
2,10 to 99.9,O=C1CCC2(CCN(C(=O)c3ccc(C[C@@H]4CC[C@H]([C@H](O)c5ccccc5)N4)cc3)CC2)O1 [Example 273]
3,1 to 9.9,O=C1OC2(CCN(C(=O)c3ccc(C[C@@H]4CC[C@H]([C@H](O)c5ccccc5)N4)cc3)CC2)CC1Cc1ccc(F)cc1 (some centres unmarked) [Example 276]
4,< 1,O=C(c1ccc(C[C@@H]2CC[C@H]([C@H](O)c3ccccc3)N2)cc1)N1CCC2(CC1)C(=O)NCC2c1ccc(C(F)(F)F)cc1 (some centres unmarked) [Example 263]

# More lines, now with the values behind:
row,SMILES,EC50 [nM]
1,O=C(c1ccc(C[C@@H]2CC[C@H]([C@H](O)c3ccccc3)N2)cc1)N1CCC2(CCCC2n2cccn2)CC1 (some centres unmarked) [Example 282],100 to 999
2,COc1cccc2c1C1(CCN(C(=O)c3ccc(C[C@@H]4CC[C@H]([C@H](O)c5cccnc5)N4)cc3)CC1)OC(=O)N2 [Example 331],10 to 99.9
3,O=C1CC2(CCN(C(=O)c3ccc(C[C@@H]4CC[C@H]([C@H](O)c5ccccc5)N4)cc3)CC2)S(=O)(=O)c2ccccc21 [Example 338],1 to 9.9
4,O=C(c1ccc(C[C@@H]2CC[C@H]([C@H](O)c3ccccc3)N2)cc1)N1CCC(C(=O)O)(c2ccccc2)CC1 [Example 241],100 to 999
5,O=C(c1ccc(C[C@@H]2CC[C@H]([C@H](O)c3ccccc3)N2)cc1)N1CCC2(CCOC2)CC1 [Example 311],100 to 999
6,O=C1NC2(CCN(C(=O)c3ccc(C[C@@H]4CC[C@H]([C@H](O)c5ccccc5)N4)cc3)CC2)CO1 [Example 271],100 to 999
7,O=C(c1ccc(C[C@@H]2CC[C@H]([C@H](O)c3ccccc3)N2)cc1)N1CCC2(CC1)C(=O)NCN2c1ccccc1 [Example 260],< 1
8,O=C1OC2(CCN(C(=O)c3ccc(C[C@@H]4CC[C@H]([C@H](O)c5ccccc5)N4)cc3)CC2)c2cccnc21 [Example 286],10 to 99.9

# Same assay, conditions: Table 9; Beta-3 agonist in vitro functional assay; read-out: Human β3 agonist functional activity
row,EC50 [nM],SMILES
1,1 to 9.9,O=C(c1ccc(C[C@@H]2CC[C@H]([C@H](O)c3ccccc3)N2)cc1)N1CCN(Cc2n[nH]c3ccccc23)CC1 [Example 405]
2,100 to 999,CS(=O)(=O)N1CCN(C(=O)c2ccc(C[C@@H]3CC[C@H]([C@H](O)c4ccccc4)N3)cc2)CC1 [Example 345]
3,10 to 99.9,Cc1noc(C(C)N2CCN(C(=O)c3ccc(C[C@@H]4CC[C@H]([C@H](O)c5ccccc5)N4)cc3)CC2)n1 (some centres unmarked) [Example 422]
4,10 to 99.9,COC(=O)c1cccnc1N1CCN(C(=O)c2ccc(C[C@@H]3CC[C@H]([C@H](O)c4ccccc4)N3)cc2)CC1 [Example 366]

# Further lines, the compound ahead of its results:
row,SMILES,EC50 [nM]
1,Cc1cccnc1N1CCN(C(=O)c2ccc(C[C@@H]3CC[C@H]([C@H](O)c4ccccc4)N3)cc2)CC1 [Example 364],10 to 99.9
2,O=C(c1ccccc1)N1CCN(C(=O)c2ccc(C[C@@H]3CC[C@H]([C@H](O)c4ccccc4)N3)cc2)CC1 [Example 347],100 to 999
3,O=C(c1ccc(C[C@@H]2CC[C@H]([C@H](O)c3ccccc3)N2)cc1)N1CCN(Cc2c(F)cccc2F)CC1 [Example 411],1 to 9.9
4,O=C(c1ccc(C[C@@H]2CC[C@H]([C@H](O)c3ccccc3)N2)cc1)N1CCN(Cc2n[nH]c3ncccc23)CC1 [Example 406],10 to 99.9
5,O=C(c1ccc(C[C@@H]2CC[C@H]([C@H](O)c3ccccc3)N2)cc1)N1CCN(Cc2ccccc2F)CC1 [Example 410],10 to 99.9
6,O=C(c1ccc(C[C@@H]2CC[C@H]([C@H](O)c3ccccc3)N2)cc1)N1CCN(Cc2nnn[nH]2)CC1 [Example 398],10 to 99.9

# Same assay, conditions: Table 10; Beta-3 agonist in vitro functional assay; read-out: Human β3 agonist functional activity
row,EC50 [nM],SMILES
1,10 to 99.9,CC(C(=O)N(C)C(C1CC1)C1CC1)N1CCN(C(=O)c2ccc(C[C@@H]3CC[C@H]([C@H](O)c4ccccc4)N3)cc2)CC1 (some centres unmarked) [Example 523]
2,10 to 99.9,CC(C(=O)N(C)CCC#N)N1CCN(C(=O)c2ccc(C[C@@H]3CC[C@H]([C@H](O)c4ccccc4)N3)cc2)CC1 (some centres unmarked) [Example 521]
3,100 to 999,CC1CCN(C(=O)C(C)N2CCN(C(=O)c3ccc(C[C@@H]4CC[C@H]([C@H](O)c5ccccc5)N4)cc3)CC2)CC1 (some centres unmarked) [Example 488]
4,1 to 9.9,Cc1nc2c(o1)CN(C(=O)C(C)N1CCN(C(=O)c3ccc(C[C@@H]4CC[C@H]([C@H](O)c5ccccc5)N4)cc3)CC1)CC2 (some centres unmarked) [Example 504]
5,10 to 99.9,CC(C(=O)N1CCC[C@@H]1C)N1CCN(C(=O)c2ccc(C[C@@H]3CC[C@H]([C@H](O)c4ccccc4)N3)cc2)CC1 (some centres unmarked) [Example 480]
6,10 to 99.9,CC(C(=O)N1CCC(CO)CC1)N1CCN(C(=O)c2ccc(C[C@@H]3CC[C@H]([C@H](O)c4ccccc4)N3)cc2)CC1 (some centres unmarked) [Example 490]

# Continued, compound first:
row,SMILES,EC50 [nM]
1,CC(C(=O)NCC1CC1(C)C)N1CCN(C(=O)c2ccc(C[C@@H]3CC[C@H]([C@H](O)c4ccccc4)N3)cc2)CC1 (some centres unmarked) [Example 450],10 to 99.9
2,CC1CCCN(C(=O)C(C)N2CCN(C(=O)c3ccc(C[C@@H]4CC[C@H]([C@H](O)c5ccccc5)N4)cc3)CC2)C1 (some centres unmarked) [Example 486],10 to 99.9
3,CC(C(=O)NCc1nccn1C)N1CCN(C(=O)c2ccc(C[C@@H]3CC[C@H]([C@H](O)c4ccccc4)N3)cc2)CC1 (some centres unmarked) [Example 463],100 to 999
4,CC(C(=O)N1CCc2cnccc2C1)N1CCN(C(=O)c2ccc(C[C@@H]3CC[C@H]([C@H](O)c4ccccc4)N3)cc2)CC1 (some centres unmarked) [Example 508],10 to 99.9
5,COCCNC(=O)C(C)N1CCN(C(=O)c2ccc(C[C@@H]3CC[C@H]([C@H](O)c4ccccc4)N3)cc2)CC1 (some centres unmarked) [Example 442],100 to 999
6,CC(C(=O)N1CCC[C@H]1C(N)=O)N1CCN(C(=O)c2ccc(C[C@@H]3CC[C@H]([C@H](O)c4ccccc4)N3)cc2)CC1 (some centres unmarked) [Example 478],100 to 999
7,CC(C(=O)N1CCCC2(CCC2)C1)N1CCN(C(=O)c2ccc(C[C@@H]3CC[C@H]([C@H](O)c4ccccc4)N3)cc2)CC1 (some centres unmarked) [Example 496],10 to 99.9
8,CC(C)NC(=O)C(C)N1CCN(C(=O)c2ccc(C[C@@H]3CC[C@H]([C@H](O)c4ccccc4)N3)cc2)CC1 (some centres unmarked) [Example 437],100 to 999
9,CC(C(=O)NCC(N)=O)N1CCN(C(=O)c2ccc(C[C@@H]3CC[C@H]([C@H](O)c4ccccc4)N3)cc2)CC1 (some centres unmarked) [Example 445],100 to 999

# Same assay, conditions: Table 11; cAMP, CHO cells; read-out: Human β3 agonist functional activity
row,EC50 [nM],SMILES
1,10 to 99.9,C[C@H]1CN(Cc2ccccn2)CCN1C(=O)c1ccc(C[C@@H]2CC[C@H]([C@H](O)c3ccccc3)N2)cc1 [Example 530]

# Same assay, conditions: Table 12; human β3 functional activity given as ranges; read-out: Human β3 agonist functional activity
row,EC50 [nM],SMILES
1,1 to 9.9,"CC1CC2(CCN(C(=O)c3ccc(CC4CCC(C(O)c5ccccc5)N4)cc3)CC2)C(=O)O1 (single isomer, unassigned) [Example 562]"
2,10 to 99.9,"CC(c1cocn1)N1CCN(C(=O)c2ccc(CC3CCC(C(O)c4ccccc4)N3)cc2)CC1 (single isomer, unassigned) [Example 585]"
3,100 to 999,"CC(c1ccn(C)n1)N1CCN(C(=O)c2ccc(CC3CCC(C(O)c4ccccc4)N3)cc2)CC1 (single isomer, unassigned) [Example 578]"
4,1 to 9.9,"CCC1CC2(CCN(C(=O)c3ccc(CC4CCC(C(O)c5ccccc5)N4)cc3)CC2)C(=O)O1 (single isomer, unassigned) [Example 563]"
5,1 to 9.9,"CC(c1ncccc1Cl)N1CCN(C(=O)c2ccc(CC3CCC(C(O)c4ccccc4)N3)cc2)CC1 (single isomer, unassigned) [Example 593]"

# Continued, compound first:
row,SMILES,EC50 [nM]
1,"O=C(c1ccc(CC2CCC(C(O)c3ccccc3)N2)cc1)N1CCN(C2CCN(C3CC3)C2=O)CC1 (single isomer, unassigned) [Example 608]",10 to 99.9
2,"O=C(c1ccc(C[C@@H]2CC[C@H]([C@H](O)c3ccccc3)N2)cc1)N1CCN(C2COc3cccnc32)CC1 (single isomer, unassigned) [Example 600]",1 to 9.9
3,"O=C(c1ccc(CC2CCC(C(O)c3ccccc3)N2)cc1)N1CCC2(CC1)C(=O)NCC2c1ccc(F)cc1 (single isomer, unassigned) [Example 558]",< 1
4,"O=C(c1ccc(CC2CCC(C(O)c3ccccc3)N2)cc1)N1CCN(C2CCN(c3ccccc3)C2=O)CC1 (single isomer, unassigned) [Example 605]",1 to 9.9
